Reference: patent US11447497B2, “(S)-3-(2-(4-(benzyl)-3-oxopiperazin-1-yl)acetamido)-4-oxo-5-(2,3,5,6-tetrafluorophenoxy)pentanoic acid derivatives and related compounds as caspase inhibitors for treating cardiovascular diseases” (HISTOGEN, INC., priority 2018, dated 2022)

How the values were obtained:
Assay type in all cases: biochemical
Caspase-1 = Caspase-1 (Homo sapiens (Human), UniProt P29466); assay: Caspase-1 assay, inhibition of caspase activity (Ac-YVAD-pNA substrate); settings: human caspase-1, Ac-YVAD-pNA 200 μM, read at 405 nm
Method: (§1) Assay for the Inhibition of Caspase Activity and Determination of IC50 Values
(§2) Human caspases were purchased from Enzo Biosciences and used according to the manufacturer's instructions. An exemplary caspase assay, for Caspase-1, is provided below:
Caspase-1 was diluted to 10 U/μl in assay buffer consisting of 50 mM HEPES, pH 7.4, 100 mM NaCl, 0.1% CHAPS, 1 mM EDTA, 10% glycerol and 10 mM DTT.
45 μl of assay buffer was added into ½ volume microtiter plate. The plate was allowed to equilibrate to assay temperature. 5 μl of Caspase-1 (10 U/μl) was added to each appropriate well. Two 2 blank wells containing just assay buffer without Caspase-1 were included on the plate.
The reaction was started by the addition of 50 μl Ac-YVAD-pNA substrate, for a final substrate concentration of 200 μM. The reaction was continuously monitored at 405 nm.
(§3) The data was graphed as OD405 nm vs time, and the slope was determined over the linear portion of the curve. The rates in OD/min were converted to substrate/min using an extinction coefficient for p-nitroaniline of 10,500 M-1 cm-1, and were adjusted for pathlength of sample. Similarly assays were conducted for Caspase-3, Caspase-8 and Caspase-9. The Table below provides a summary of the binding data for the compounds prepared according to Examples 1-4: […]

Caspase-3 = Caspase-3 (Homo sapiens (Human), UniProt P42574); assay: Caspase-3 assay, inhibition of caspase activity; settings: human caspase-3
Method: as §1, §2, §3

Caspase-8 = Caspase-8 (Homo sapiens (Human), UniProt Q14790); assay: Caspase-8 assay, inhibition of caspase activity; settings: human caspase-8
Method: as §1, §2, §3

Caspase-9 = Caspase-9 (Homo sapiens (Human), UniProt P55211); assay: Caspase-9 assay, inhibition of caspase activity; settings: human caspase-9
Method: as §1, §2, §3

Caspase-8, sequence (Q14790 217-374): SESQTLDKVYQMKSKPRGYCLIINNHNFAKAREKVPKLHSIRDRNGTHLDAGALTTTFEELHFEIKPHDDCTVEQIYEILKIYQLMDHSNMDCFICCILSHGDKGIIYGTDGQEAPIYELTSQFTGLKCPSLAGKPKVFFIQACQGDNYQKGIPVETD
Caspase-8, sequence (Q14790 385-479): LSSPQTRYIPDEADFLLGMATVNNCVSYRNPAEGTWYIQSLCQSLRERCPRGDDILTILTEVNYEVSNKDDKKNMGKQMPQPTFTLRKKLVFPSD
Caspase-9, sequence (P55211 1-315): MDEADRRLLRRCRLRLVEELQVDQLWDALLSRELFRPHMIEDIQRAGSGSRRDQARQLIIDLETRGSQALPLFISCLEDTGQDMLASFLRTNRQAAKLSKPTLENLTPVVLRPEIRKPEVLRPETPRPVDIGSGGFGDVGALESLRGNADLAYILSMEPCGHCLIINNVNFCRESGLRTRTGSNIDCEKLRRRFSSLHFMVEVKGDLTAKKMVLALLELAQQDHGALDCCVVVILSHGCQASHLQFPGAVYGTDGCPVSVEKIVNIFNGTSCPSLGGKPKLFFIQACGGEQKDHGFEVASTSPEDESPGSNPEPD
Caspase-9, sequence (P55211 331-416): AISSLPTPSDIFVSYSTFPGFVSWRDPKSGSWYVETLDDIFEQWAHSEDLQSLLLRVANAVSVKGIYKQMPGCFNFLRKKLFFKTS
Caspase-1, sequence (P29466 120-297): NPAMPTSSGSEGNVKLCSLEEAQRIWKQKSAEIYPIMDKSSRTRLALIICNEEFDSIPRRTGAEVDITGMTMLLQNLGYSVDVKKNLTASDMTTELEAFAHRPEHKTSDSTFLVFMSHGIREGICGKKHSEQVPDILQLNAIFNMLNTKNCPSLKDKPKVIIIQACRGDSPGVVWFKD
Caspase-1, sequence (P29466 317-404): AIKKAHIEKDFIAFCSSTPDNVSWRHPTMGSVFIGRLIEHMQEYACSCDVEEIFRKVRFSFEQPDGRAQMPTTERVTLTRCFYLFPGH
Caspase-3, sequence (P42574 29-175): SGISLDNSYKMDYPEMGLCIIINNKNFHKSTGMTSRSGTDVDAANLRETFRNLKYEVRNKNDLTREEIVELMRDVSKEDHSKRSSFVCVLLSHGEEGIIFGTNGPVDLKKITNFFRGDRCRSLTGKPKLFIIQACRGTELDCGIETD
Caspase-3, sequence (P42574 176-277): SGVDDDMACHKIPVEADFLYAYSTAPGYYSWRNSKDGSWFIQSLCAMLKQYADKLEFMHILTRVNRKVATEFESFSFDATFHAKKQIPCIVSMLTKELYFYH

IC50 (Caspase-1) [µM]	IC50 (Caspase-3) [µM]	IC50 (Caspase-8) [µM]	IC50 (Caspase-9) [µM]	Compound
0.065	1	0.396	1	O=C(O)C[C@H](NC(=O)CN1CCN(Cc2ccccc2)C(=O)C1)C(=O)COc1ccnc(C(F)(F)F)n1 [Example 3, (S)-3-(2-(4-Benzyl-3-oxopiperazin-1-yl)acetamido)-4-oxo-5-((2-(trifluoromethyl)pyrimidin-4-yl)oxy)pentanoic acid]
0.002	0.2	0.001	0.107	O=C(O)C[C@H](NC(=O)CN1CCN(S(=O)(=O)c2ccccc2)CC1)C(=O)COc1c(F)c(F)cc(F)c1F [Example 4, (S)-4-oxo-3-(2-(4-(phenylsulfonyl)piperazin-1-yl)acetamido)-5-(2,3,5,6-tetrafluorophenoxy)pentanoic acid]
0.009	0.132	0.132	0.122	O=C(O)C[C@H](NC(=O)CN1CCN(Cc2ccccc2)C(=O)C1)C(=O)COc1c(F)c(F)cc(F)c1F [Example 1, (S)-3-(2-(4-Benzyl-3-oxopiperazin-1-yl)acetamido)-4-oxo-5-(2,3,5,6-tetrafluorophenoxy)pentanoic acid]
0.004	0.032	0.028	0.038	O=C(O)C[C@H](NC(=O)CN1CCN(Cc2ccccc2)CC1=O)C(=O)COc1c(F)c(F)cc(F)c1F [Example 2, (S)-3-(2-(4-Benzyl-2-oxopiperazin-1-yl)acetamido)-4-oxo-5-(2,3,5,6-tetrafluorophenoxy)pentanoic acid]
